This note sets out measurements from patent US7425631B2 (Amgen Inc., priority 2003, dated 2008).

SMILES strings stand for the structures.

The assay deals with T1, human B1 receptor (Homo sapiens, UniProt P46663).
T1 construct: expressed in transfected cells
T1 sequence (P46663 1-353): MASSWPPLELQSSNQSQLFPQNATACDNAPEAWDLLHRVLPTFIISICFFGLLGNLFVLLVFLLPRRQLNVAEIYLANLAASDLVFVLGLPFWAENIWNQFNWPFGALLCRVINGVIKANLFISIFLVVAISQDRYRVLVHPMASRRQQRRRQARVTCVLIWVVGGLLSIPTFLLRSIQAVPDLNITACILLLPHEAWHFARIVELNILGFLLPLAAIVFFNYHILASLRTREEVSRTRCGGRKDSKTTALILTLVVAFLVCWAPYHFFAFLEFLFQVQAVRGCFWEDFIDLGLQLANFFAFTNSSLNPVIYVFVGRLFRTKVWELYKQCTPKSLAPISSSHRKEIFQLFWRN
The experiment in a line: In vitro assay of human B1 receptor function using calcium flux (aequorin luminescence). As to conditions: CHO D-/hB1/Aequorin cells, agonist 20 nM des-Arg10-Kallidin (EC80); read-out: binding IC50's to hB1 receptor function. The assay is classed as cell-based. On the procedure: Activation of the Gq linked B1 receptor results in an increase in intracellular calcium. […] Aequorin is a 21-kDa photoprotein that forms a bioluminescent complex when linked to the chromophore cofactor coelenterazine.
Following coelenterazine incubation, an automated flash-luminometer platform was used to dispense the B1 antagonist compounds (dissolved in DMSO and diluted with buffer to the desired concentration (final DMSO concentration <1% DMSO)) to the cell plate, a CCD camera situated underneath the cell plate took 12 images of the cell plate at 5 second intervals to determine if there was any agonist activity with the compounds. The hB1 agonist, des-Arg10-Kallidin, was added to the cell plate and another 12 images were recorded to determine the IC50 of the antagonist(s).
On the technique in general: Calcium flux is commonly read through the fluorescence of an indicator in the cells.
For `CC(C)NCc1ccc2c(c1)CCC[C@H]2NC(=O)C[C@@H](NS(=O)(=O)c1ccc(Cl)c(Cl)c1)c1ccccc1`, the IC50 (usually the concentration at which inhibition is half-maximal) is less than 10 nM.

With `O=C(CC(NS(=O)(=O)c1cccc(C(F)(F)F)c1)c1ccc(F)cc1)N[C@@H]1CCCc2cc(CN3CCCCC3)ccc21` (stereo in doubt) [ba, (3S)-3-(4-fluorophenyl)-N-((1R)-6-(1-piperidinylmethyl)-1,2,3,4-tetrahydro-1-naphthalenyl)-3-(((3-(trifluoromethyl)phenyl)sulfonyl)amino)propanamide], the IC50 was less than 10 nM.

On to `O=C(C[C@@H](NS(=O)(=O)c1cccc(C(F)(F)F)c1)c1ccccc1)N[C@@H]1CCOc2cc(CN3CCCCC3)ccc21` [Example 166, (3R)-3-Phenyl-N-((4R)-7-(1-piperidinylmethyl)-3,4-dihydro-2H-chromen-4-yl)-3-(((3-(trifluoromethyl)phenyl)sulfonyl)amino)propanamide], for which the IC50 is less than 10 nM.

In the case of `O=C(C[C@@H](NS(=O)(=O)c1ccc(Cl)c(Cl)c1)c1ccccc1)N[C@@H]1CCOc2cc(CN3CCCCC3)ccc21` [Example 168, (3R)-3-(((3,4-Dichlorophenyl)sulfonyl)amino)-3-phenyl-N-((4R)-7-(1-piperidinylmethyl)-3,4-dihydro-2H-chromen-4-yl)propanamide], the IC50 is less than 10 nM.

Consider `O=C(C[C@@H](NS(=O)(=O)c1ccc(Cl)c(Cl)c1)c1ccccc1)N[C@@H]1CCOc2cc(CN3CCOCC3)ccc21` [Example 169, (3R)-3-(((3,4-Dichlorophenyl)sulfonyl)amino)-N-((4R)-7-(4-morpholinylmethyl)-3,4-dihydro-2H-chromen-4-yl)-3-phenylpropanamide], for which the IC50 was less than 10 nM.

For the compound `CC(C)(C)NCc1ccc2c(c1)OCC[C@H]2NC(=O)C[C@@H](NS(=O)(=O)c1cccc(C(F)(F)F)c1)c1ccccc1` [Example 170, (3R)-N-((4R)-7-(((1,1-Dimethylethyl)amino)methyl)-3,4-dihydro-2H-chromen-4-yl)-3-phenyl-3-(((3-(trifluoromethyl)phenyl)sulfonyl)amino)propanamide], the half-inhibitory concentration (IC50) was less than 10 nM.

For the compound `CN1c2cc(CN3CCCCC3)ccc2[C@@H](NC(=O)C[C@@H](NS(=O)(=O)c2ccc3ccccc3c2)c2ccccc2)CS1(=O)=O` [Example 175, (3R)-N-((4R)-1-Methyl-2,2-dioxido-7-(1-piperidinylmethyl)-3,4-dihydro-1H-2,1-benzothiazin-4-yl)-3-((2-naphthalenylsulfonyl)amino)-3-phenylpropanamide], the concentration for half-maximal inhibition (IC50) is less than 10 nM.

Regarding `O=C(C[C@@H](NS(=O)(=O)c1ccc2ccccc2c1)c1ccccc1)N[C@H]1CCc2cc(CN3CCCCC3)ccc21` [Example 176, (3R)-3-((2-Naphthalenylsulfonyl)amino)-3-phenyl-N-((1S)-5-(1-piperidinylmethyl)-2,3-dihydro-1H-inden-1-yl)propanamide], the IC50 is less than 10 nM.

As for `O=C(C[C@@H](NS(=O)(=O)c1cccc(C(F)(F)F)c1)c1ccccc1)N[C@@H]1CCOc2cc(CN3CCC(F)CC3)ccc21` [Example 185, (3R)-N-((4R)-7-((4-Fluoro-1-piperidinyl)methyl)-3,4-dihydro-2H-chromen-4-yl)-3-phenyl-3-(((3-(trifluoromethyl)phenyl)sulfonyl)amino)propanamide], the IC50 was less than 10 nM.

For `O=C(C[C@@H](NS(=O)(=O)c1cccc(C(F)(F)F)c1)c1ccccc1)N[C@@H]1CCOc2cc(CN3CCC(F)(F)CC3)ccc21` [Example 198, (3R)-N-((4R)-7-((4,4-Difluoro-1-piperidinyl)methyl)-3,4-dihydro-2H-chromen-4-yl)-3-phenyl-3-(((3-(trifluoromethyl)phenyl)sulfonyl)amino)propanamide], the IC50 was less than 10 nM.

As to `C=C(CN1CCCCC1)c1ccc2c(c1)CCC[C@H]2NC(=O)C[C@@H](NS(=O)(=O)c1ccc(Cl)c(Cl)c1)c1ccccc1` [Example 218d, (3R)-3-(((3,4-dichlorophenyl)sulfonyl)amino)-3-phenyl-N-((1R)-6-(1-(1-piperidinylmethyl)ethenyl)-1,2,3,4-tetrahydro-1-naphthalenyl)propanamide], the IC50 is less than 10 nM.

For the compound `C=C(CN1CC[C@H](O)C1)c1ccc2c(c1)CCC[C@H]2NC(=O)C[C@@H](NS(=O)(=O)c1cccc(C(F)(F)F)c1)c1ccccc1` [Example 218j, (3R)-N-((1R)-6-(1-(((3S)-3-hydroxy-1-pyrrolidinyl)methyl)ethenyl)-1,2,3,4-tetrahydro-1-naphthalenyl)-3-phenyl-3-(((3-(trifluoromethyl)phenyl)sulfonyl)amino)propanamide], the half-inhibitory concentration (IC50) is less than 10 nM.

Regarding `C=C(CN1CCCC1)c1ccc2c(c1)CCC[C@H]2NC(=O)C[C@@H](NS(=O)(=O)c1cccc(C(F)(F)F)c1)c1ccccc1` [Example 218q, (3R)-3-phenyl-N-((1R)-6-(1-(1-pyrrolidinylmethyl)ethenyl)-1,2,3,4-tetrahydro-1-naphthalenyl)-3-(((3-(trifluoromethyl)phenyl)sulfonyl)amino)propanamide], the IC50 was less than 10 nM.

As for `C=C(CN1CCCCC1)c1ccc2c(c1)CCC[C@H]2NC(=O)C[C@@H](NS(=O)(=O)c1cccc(C(F)(F)F)c1)c1ccccc1` [Example 218r, (3R)-3-phenyl-N-((1R)-6-(1-(1-piperidinylmethyl)ethenyl)-1,2,3,4-tetrahydro-1-naphthalenyl)-3-(((3-(trifluoromethyl)phenyl)sulfonyl)amino)propanamide], the IC50 was less than 10 nM.

Regarding `CC(C)CNC(C)c1ccc2c(c1)CCC[C@H]2NC(=O)C[C@@H](NS(=O)(=O)c1cccc(C(F)(F)F)c1)c1ccccc1` (stereo partly drawn) [Example 220a, (3R)-3-((hydroxy(oxido)(3-(trifluoromethyl)phenyl)-lambda-4—sulfanyl)amino)-N-((1R)-6-((1R)-1-((2-methylpropyl)amino)ethyl)-1,2,3,4-tetrahydro-1-naphthalenyl)-3-phenylpropanamide], the IC50 is less than 10 nM.

`CC(C)CNC(C)c1ccc2c(c1)CCC[C@H]2NC(=O)C[C@@H](NS(=O)(=O)c1ccc2ccccc2c1)c1ccccc1` (stereo partly drawn) [Example 220g]: the IC50 is less than 10 nM.

Turning to `CC(C)(C)NCc1ccc2c(c1)CCC[C@H]2NC(=O)C[C@H](NS(=O)(=O)c1cccc(C(F)(F)F)c1)c1ccc(F)cc1` [a, (3S)-N-((1R)-6-(((1,1-dimethylethyl)amino)-methyl)-1,2,3,4-tetrahydro-1-naphthalenyl)-3-(4-fluorophenyl)-3-(((3-(trifluoromethyl)phenyl)-sulfonyl)amino)propanamide], the IC50 is less than 10 nM.

Take `CN([C@H](CC(=O)N[C@@H]1CCCc2cc(CN3CCCCC3)ccc21)c1ccccc1)S(=O)(=O)c1cccc(C(F)(F)F)c1` [aa, (3R)-3-(methyl((3-(trifluoromethyl)phenyl)sulfonyl)amino)-3-phenyl-N-((1R)-6-(1-piperidinylmethyl)-1,2,3,4-tetrahydro-1-naphthalenyl)propanamide]: the IC50 is less than 10 nM.

Consider `Cc1c(S(=O)(=O)N[C@H](CC(=O)NC2CCCc3cc(CNC(C)(C)C)ccc32)c2ccccc2)sc2ccc(Cl)cc12` (stereo partly drawn) [ad, (3R)-3-(((5-chloro-3-methyl-1-benzothien-2-yl)sulfonyl)amino)-N-(6-(((1,1-dimethylethyl)amino)methyl)-1,2,3,4-tetrahydro-1-naphthalenyl)-3-phenylpropanamide], for which the IC50 was less than 10 nM.

Take `Cc1c(S(=O)(=O)N[C@H](CC(=O)NC2CCCc3cc(CN4CCCCC4)ccc32)c2ccccc2)sc2ccc(Cl)cc12` (stereo partly drawn) [ae, (3R)-3-(((5-chloro-3-methyl-1-benzothien-2-yl)sulfonyl)amino)-3-phenyl-N-(6-(1-piperidinylmethyl)-1,2,3,4-tetrahydro-1-naphthalenyl)propanamide]: the IC50 is less than 10 nM.

Turning to `O=C(C[C@@H](NS(=O)(=O)c1cccc(C(F)(F)F)c1)c1ccccc1)N[C@@H]1CCCc2cc(CN3CC=CCC3)ccc21` [am, (3R)-N-((1R)-6-(3,6-dihydro-1(2H)-pyridinylmethyl)-1,2,3,4-tetrahydro-1-naphthalenyl)-3-phenyl-3-(((3-(trifluoromethyl)phenyl)sulfonyl)amino)propanamide], the IC50 was less than 10 nM.

Regarding `COc1ccc([C@@H](CC(=O)N[C@@H]2CCCc3cc(CN4CCCCC4)ccc32)NS(=O)(=O)c2cc3cc(Cl)ccc3s2)cn1` [aw, (3R)-3-(((5-chloro-1-benzothien-2-yl)sulfonyl)amino)-3-(6-(methyloxy)-3-pyridinyl)-N-((1R)-6-(1-piperidinylmethyl)-1,2,3,4-tetrahydro-1-naphthalenyl)propanamide], the concentration for half-maximal inhibition (IC50) is less than 10 nM.

As for `COc1ccc([C@@H](CC(=O)N[C@@H]2CCCc3cc(CN4CCCCC4)ccc32)NS(=O)(=O)c2cccc(C(F)(F)F)c2)cn1` [ay, (3R)-3-(6-(methyloxy)-3-pyridinyl)-N-((1R)-6-(1-piperidinylmethyl)-1,2,3,4-tetrahydro-1-naphthalenyl)-3-(((3-(trifluoromethyl)phenyl)sulfonyl)amino)propanamide], the IC50 is less than 10 nM.

Consider `CC(C)CNCc1ccc2c(c1)CCC[C@H]2NC(=O)C[C@@H](NS(=O)(=O)c1ccc(Cl)c(Cl)c1)c1ccccc1` [bg, (3R)-3-(((3,4-dichlorophenyl)sulfonyl)amino)-N-((1R)-6-(((2-methylpropyl)amino)methyl)-1,2,3,4-tetrahydro-1-naphthalenyl)-3-phenylpropanamide], for which the IC50 was less than 10 nM.
